IC50 data for ten compounds are collected here from patent publication US20070123546A1, “2-amino-7,8-dihydro-6H-pyrido[4,3-d]pyrimidin-5-ones” (Chiron Corporation, priority 2005, published 2007).

This assay has as its target His-tagged N-terminal ATP binding domain (amino acid residues 9-236) of HSP90α (Homo sapiens, UniProt P07900). Put plainly: HSP90 inhibitor binding potency: TRF competition binding assay. The following applies: Table 4; competition with biotinylated radicicol. The gist of the method:
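Competition against biotinylated radicicol for binding to the His-tagged 9-236 ATP domain of HSP90α: 2 h, room temperature, HEPES/MgCl2/KCl/BSA buffer. Streptavidin capture, then europium-labeled anti-His antibody and enhancement solution; europium counts give IC50.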

For the compound `CCOc1nc(-c2ccccc2[C@H]2Cc3nc(N)nc(C)c3C(=O)N2)cs1` [Compound 230, (R)-2-Amino-7-[2-(2-ethoxy-thiazol-4-yl)-phenyl]-4-methyl-7,8-dihydro-6H-pyrido[4,3-d]pyrimidin-5-one], the IC50 (usually the concentration that gives 50% inhibition) is under 10 µM.

Consider `CCOc1nc(-c2cc(F)ccc2[C@H]2Cc3nc(N)nc(C)c3C(=O)N2)cs1` [Compound 231, (R)-2-Amino-7-[2-(2-ethoxy-thiazol-4-yl)-4-fluoro-phenyl]-4-methyl-7,8-dihydro-6H-pyrido[4,3-d]pyrimidin-5-one], for which the IC50 is under 10 µM.

As for `COc1cccc(-c2scnc2[C@@H]2Cc3nc(N)nc(C)c3C(=O)N2)n1` [Compound 232, (S)-2-Amino-7-[5-(6-methoxy-pyridin-2-yl)-thiazol-4-yl]-4-methyl-7,8-dihydro-6H-pyrido[4,3-d]pyrimidin-5-one], the IC50 is under 10 µM.

As for `COc1cncc(-c2scnc2[C@@H]2Cc3nc(N)nc(C)c3C(=O)N2)n1` [Compound 233, (S)-2-Amino-7-[5-(6-methoxy-pyrazin-2-yl)-thiazol-4-yl]-4-methyl-7,8-dihydro-6H-pyrido[4,3-d]pyrimidin-5-one], the IC50 was under 10 µM.

In turn, `CCOc1nc(-c2ccccc2[C@H]2Cc3nc(N)ncc3C(=O)N2)cnc1N` [Compound 234, (R)-2-Amino-7-[2-(5-amino-6-ethoxy-pyrazin-2-yl)-phenyl]-7,8-dihydro-6H-pyrido[4,3-d]pyrimidin-5-one] yielded an IC50 of under 10 µM.

Compound `CCc1nc(-c2ccccc2[C@H]2Cc3nc(N)nc(C)c3C(=O)N2)cnc1N` [Compound 235, (R)-2-Ammo-7-[2-(5-amino-6-ethyl-pyrazin-2-yl)-phenyl]-4-methyl-7,8-dihydro-6H-pyrido[4,3-d]pyrimidin-5-one] came in with an IC50 of under 10 µM.

The compound `COc1ccc([C@H]2Cc3nc(N)nc(C)c3C(=O)N2)c(Br)c1` [Compound 236, (R)-2-Amino-7-(2-bromo-4-methoxy-phenyl)-4-methyl-7,8-dihydro-6H-pyrido[4,3-d]pyrimidin-5-one] had an IC50 of at least 10 µM.

Consider `COc1ccc([C@H]2Cc3nc(N)nc(C)c3C(=O)N2)c(-c2cccc(OC)n2)c1` [Compound 237, (R)-2-Amino-7-[4-methoxy-2-(6-methoxy-pyridin-2-yl)-phenyl]-4-methyl-7,8-dihydro-6H-pyrido[4,3-d]pyrimidin-5-one], for which the IC50 is under 10 µM.

Compound `CCOc1nc(-c2cc(OC)ccc2[C@H]2Cc3nc(N)nc(C)c3C(=O)N2)cnc1N` [Compound 238, (R)-2-Amino-7-[2-(5-amino-6-ethoxy-pyrazin-2-yl)-4-methoxy-phenyl]-4-methyl-7,8-dihydro-6H-pyrido[4,3-d]pyrimidin-5-one] showed an IC50 of under 10 µM.

For the compound `CCOc1cncc(-c2cc(OC)ccc2[C@H]2Cc3nc(N)nc(C)c3C(=O)N2)n1` [Compound 239, (R)-2-Amino-7-[2-(6-ethoxy-pyrazin-2-yl)-4-methoxy-phenyl]-4-methyl-7,8-dihydro-6H-pyrido[4,3-d]pyrimidin-5-one], the half-maximal inhibitory concentration (IC50) was under 10 µM.
